Article PMC6713088, “Synthesis and biological evaluation of novel 3-(quinolin-4-ylamino)benzenesulfonamides as carbonic anhydrase isoforms I and II inhibitors” (Journal of Enzyme Inhibition and Medicinal Chemistry, 2019)
Like-named read-outs stand apart in the source and are kept apart here.

Columns and labels:
[1] = biological target: T1, hCA II (Homo sapiens, UniProt P00918); assay: stopped-flow CO2 hydration assay; assay type: biochemical
T1 construct: gene CA2; cytosolic isoform
Excerpt: (§1) stopped-flow CO2 hydration assay on hCA II

[2] = biological target: T2, hCA I (Homo sapiens, UniProt P00915); assay: stopped-flow CO2 hydration assay; assay type: biochemical
T2 construct: gene CA1; cytosolic isoform
Excerpt: stopped-flow CO2 hydration assay on hCA I

[3] = stopped-flow CO2 hydration assay; assay type: biochemical, Homo sapiens; settings: read-out: KI (nM) ^* / hCA I
Excerpt: as §1

T2 sequence (P00915 2-261): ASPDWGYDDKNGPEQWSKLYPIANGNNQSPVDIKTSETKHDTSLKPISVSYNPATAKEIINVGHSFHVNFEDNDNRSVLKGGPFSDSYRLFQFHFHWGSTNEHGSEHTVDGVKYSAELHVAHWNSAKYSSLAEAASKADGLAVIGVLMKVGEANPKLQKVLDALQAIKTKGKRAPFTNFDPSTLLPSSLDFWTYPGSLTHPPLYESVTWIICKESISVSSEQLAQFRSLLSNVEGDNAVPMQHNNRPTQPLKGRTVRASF

Structure (SMILES) | Ki [1] [nM] | Ki [2] [nM] | Ki [3] [nM] | Ki ([1]; CO2 […], […] Hepes pH […] Na2SO4, […] min preincubation at room temperature) [nM]
CCOC(=O)c1cnc2cc(Cl)cc(Cl)c2c1Nc1cccc(S(N)(=O)=O)c1 [6f, Ethyl 5,7-dichloro-4-((3-sulphamoylphenyl)amino)quinoline-3-carboxylate] | – | > 10000 | > 10000 | –
CCOC(=O)c1cnc2cc(Cl)c(F)cc2c1Nc1cccc(S(=O)(=O)NC)c1 [compound 11, Ethyl 7-chloro-6-fluoro-4-((3-(N-methylsulphamoyl)phenyl)amino)quinoline-3-carboxylate] | – | > 10000 | > 10000 | –
CCOC(=O)c1cnc2cc(Cl)c(F)cc2c1Nc1cccc(S(N)(=O)=O)c1 [6e, Ethyl 7-chloro-6-fluoro-4-((3-sulphamoylphenyl)amino)quinoline-3-carboxylate] | – | 7600 | – | 83.3
CCOC(=O)c1cnc2ccccc2c1Nc1cccc(S(N)(=O)=O)c1 [6a, Ethyl 4-((3-sulphamoylphenyl)amino)quinoline-3-carboxylate] | 223 | 4230 | – | –

Other lines, results leading:

Ki [1] [nM] | Ki [2] [nM] | Ki [3] [nM] | Ki ([1]; CO2 […], […] Hepes pH […] Na2SO4, […] min preincubation at room temperature) [nM] | Structure (SMILES)
782 | 6640 | – | – | CCOC(=O)c1cnc2ccc(C)cc2c1Nc1cccc(S(N)(=O)=O)c1 [6b, Ethyl 6-methyl-4-((3-sulphamoylphenyl)amino)quinoline-3-carboxylate]
3590 | 9090 | – | – | CCOC(=O)c1cnc2ccc(Br)cc2c1Nc1cccc(S(N)(=O)=O)c1 [6d, Ethyl 6-bromo-4-((3-sulphamoylphenyl)amino)quinoline-3-carboxylate]
175 | 966 | – | – | CCOC(=O)c1cnc2ccc(OC)cc2c1Nc1cccc(S(N)(=O)=O)c1 [6c, Ethyl 6-methoxy-4-((3-sulphamoylphenyl)amino)quinoline-3-carboxylate]
